Among the data in ChEMBL document CHEMBL1137538, “Natural triterpenoids from Cecropia lyratiloba are cytotoxic to both sensitive and multidrug resistant leukemia cell lines” (Bioorg Med Chem, 2007) are IC50 and Activity values, retold here.

Broadly, the IC50 is the concentration needed to halve the response being measured.

Assay [1] relates to K562. In words: Cytotoxicity against human K562 cells assessed as cell viability after 48 hrs by MTT assay. Particulars: K562, 48 h. Format: functional, cell-based. In general terms: Formazan colour is commonly taken as a measure of viable cells.
Assay [2] in a line: Cytotoxicity against human multidrug resistant Lucena1 cells assessed as cell viability after 48 hrs by MTT assay. Format: functional, cell-based. Particulars: Lucena 1, 48 h.
For another assay, the system named is HEp-2. In words: Cytotoxicity against human HEp2 cells assessed as cell viability. It is filed as functional, cell-based.
A further assay has as its system Caco-2. In words: Cytotoxicity against human Caco-2 cells assessed as cell viability. Format: functional, cell-based.
Another assay deals with A549. Nature of the assay: Cytotoxicity against human A549 cells assessed as cell viability. Format: functional, cell-based.
In assay [3] the test system is K562. Nature of the assay: Induction of apoptosis in human K562 cells assessed as DNA fragmentation at 10 ug/mL by FACS analysis. Format: functional. A general note: A flow cytometer gives signals particle by particle.
Assay [4] relates to K562. Nature of the assay: Induction of apoptosis in human K562 cells assessed as DNA fragmentation at 25 ug/mL by FACS analysis. Format: functional.
Assay [5] concerns K562. In words: Induction of apoptosis in human K562 cells assessed as DNA fragmentation at 50 ug/mL by FACS analysis. Format: functional.
Assay [6] is described as follows: Induction of apoptosis in human multidrug resistant Lucena1 cells assessed as DNA fragmentation at 10 ug/mL by FACS analysis. It is filed as functional.
A short description of assay [7]: Induction of apoptosis in human multidrug resistant Lucena1 cells assessed as DNA fragmentation at 25 ug/mL by FACS analysis. Format: functional.
Assay [8] is described as follows: Induction of apoptosis in human multidrug resistant Lucena1 cells assessed as DNA fragmentation at 50 ug/mL by FACS analysis. It is filed as functional.
Assay [9] deals with K562. In words: Activation of caspase 3 in human K562 cells at 50 ug/mL after 4 hrs by flow cytometry. Format: functional.
The subject of assay [10] is K562. In words: Activation of caspase 3 in human K562 cells at 50 ug/mL after 8 hrs by flow cytometry. Format: functional.
Assay [11] concerns K562. Nature of the assay: Activation of caspase 3 in human K562 cells at 50 ug/mL after 12 hrs by flow cytometry. It is filed as functional.
The test system of assay [12] is K562. In words: Activation of caspase 3 in human K562 cells at 50 ug/mL after 24 hrs by flow cytometry. It is filed as functional.

As for `C[C@@H]1CC[C@]2(C(=O)O)CC[C@]3(C)C(=CC[C@@H]4[C@@]5(C)C[C@@H](O)[C@H](O)C(C)(C)[C@@H]5CC[C@]43C)[C@@H]2[C@]1(C)O` [TOMENTIC ACID], the IC50 with K562 [1] stood at 89.4 µM; in assay [2], 80.2 µM.

On to `C[C@@H]1CC[C@]2(C(=O)O)CC[C@]3(C)C(=CC[C@@H]4[C@@]5(C)C[C@@H](O)[C@@H](O)C(C)(C)[C@@H]5CC[C@]43C)[C@@H]2[C@]1(C)O` [EUSCAPHIC ACID], for which the half-maximal inhibitory concentration (IC50) was determined as 76.7 µM in the assay with K562 [1]; 83.8 µM in [2]; 106 µM in the assay with HEp-2; 104 µM in the assay on Caco-2; 95.6 µM in the assay on A549. The Activity is 13.58% with K562 [3]; 27.75% in the assay with K562 [4]; 62.93% in the assay on K562 [5]; 10.48% in [6]; 30.87% in assay [7]; 63.57% in assay [8]. Moreover, the Activity with K562 [9] was found to be 8.04%; with K562 [10] it was 13.87%; with K562 [11], 18.69%; in the assay on K562 [12] it was 36.33%.

For the molecule `CC(=O)O[C@@H]1C[C@]2(C)[C@H]3CC=C4[C@H]5[C@](C(=O)O)(CC[C@@H](C)[C@@]5(C)O)CC[C@@]4(C)[C@]3(C)CC[C@H]2C(C)(C)[C@H]1O`, the concentration for half-maximal inhibition (IC50) in the assay with K562 [1] came out at 38.4 µM; in assay [2], 41.4 µM.

On to `CC(=O)O[C@H]1[C@H](O)C[C@]2(C)[C@H]3CC=C4[C@H]5[C@](C(=O)O)(CC[C@@H](C)[C@@]5(C)O)CC[C@@]4(C)[C@]3(C)CC[C@H]2C1(C)C`, for which the IC50 in the assay on K562 [1] came out at 56.6 µM; in assay [2] it was 72.9 µM.

In the case of `CC[C@]1(O)C[C@H]2CN(CCc3c([nH]c4ccccc34)[C@@](C(=O)OC)(c3cc4c(cc3OC)N(C=O)[C@H]3[C@@](O)(C(=O)OC)[C@H](OC(C)=O)[C@]5(CC)C=CCN6CC[C@]43[C@@H]65)C2)C1` [VINCRISTINE], the values for the half-maximal inhibitory concentration (IC50) (in the assay on K562 [1]; in [2]) were 0.006 µM and over 0.1 µM, respectively.
